Test results taken from patent US20230271964A1, “5-AMINO-8-(4-PYRIDYL)-[1,2,4]TRIAZOLO[4,3-C]PYRIMIDIN-3-ONE COMPOUNDS FOR USE AGAINST CANCER” (ASTRAZENECA AB, priority 2020, published 2023).

Assays:
[1] = molecular target: human adenosine A2A receptor (Homo sapiens (Human), UniProt P29274); assay: Adenosine receptor inhibition binding assay, [3H]ZM241385, HEK293 A2A receptor membranes; conditions: 1 nM [3H]ZM241385, HEK293-hA2A membranes, 25° C., 1 h, Ki from IC50 by Cheng-Prusoff; for Ki: read-out: A2A pKi (converted)
human adenosine A2A receptor, sequence (P29274 whole entry): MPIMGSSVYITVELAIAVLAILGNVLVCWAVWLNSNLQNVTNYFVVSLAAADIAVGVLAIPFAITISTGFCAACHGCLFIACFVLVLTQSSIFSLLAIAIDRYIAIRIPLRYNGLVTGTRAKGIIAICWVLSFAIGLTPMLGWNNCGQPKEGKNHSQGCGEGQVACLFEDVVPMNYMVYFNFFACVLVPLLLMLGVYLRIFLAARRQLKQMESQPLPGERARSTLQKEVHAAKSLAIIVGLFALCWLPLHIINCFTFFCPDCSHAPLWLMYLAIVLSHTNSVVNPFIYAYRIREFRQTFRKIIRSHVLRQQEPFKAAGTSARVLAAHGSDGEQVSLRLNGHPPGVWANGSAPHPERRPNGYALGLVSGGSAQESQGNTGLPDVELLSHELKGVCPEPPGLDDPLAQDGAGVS
Procedure, shortened: (§1)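 Membranes from BacMam-transduced HEK293 cells (0.2 µg A2A; 1.4 µg A1) incubated 1 h at 25 °C with 1 nM radioligand; A2A in 50 mM Tris-HCl pH 7.4, A1 buffer adds 100 mM NaCl, 10 mM MgCl2. Nonspecific binding: 1 µM CGS 15943 (A2A) or 1 µM DPCPX (A1). Filtration, scintillation counting; IC50 converted to Ki via Cheng-Prusoff.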

human CB1 receptor = human CB1 receptor (Homo sapiens (Human), UniProt P21554); assay: CB1 receptor antagonism, agonist-induced cAMP modulation (HTRF) in transfected CHO cells; assay type: cell-based; conditions: read-out: Antag IC50
human CB1 receptor, sequence (P21554 whole entry): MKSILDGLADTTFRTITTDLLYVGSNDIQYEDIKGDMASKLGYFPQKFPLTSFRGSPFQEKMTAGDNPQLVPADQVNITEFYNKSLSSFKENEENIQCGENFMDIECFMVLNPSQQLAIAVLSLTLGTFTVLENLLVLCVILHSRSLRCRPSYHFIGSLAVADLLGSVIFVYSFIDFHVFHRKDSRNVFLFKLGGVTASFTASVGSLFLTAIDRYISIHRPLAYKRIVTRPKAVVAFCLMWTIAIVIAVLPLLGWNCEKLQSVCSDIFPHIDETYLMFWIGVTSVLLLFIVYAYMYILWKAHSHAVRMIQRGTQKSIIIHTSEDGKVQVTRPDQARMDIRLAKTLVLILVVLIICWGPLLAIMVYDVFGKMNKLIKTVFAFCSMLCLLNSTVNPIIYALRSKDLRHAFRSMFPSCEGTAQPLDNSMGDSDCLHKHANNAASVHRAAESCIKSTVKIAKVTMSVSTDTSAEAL
Procedure: Receptor antagonism: Evaluation of the antagonist activity of compounds at the human CB1 receptor expressed in transfected CHO cells, determined by measuring their effects on agonist-induced cAMP modulation using the HTRF detection method.
Thereafter, the reference agonist CP 55940 and the adenylyl cyclase activator NKH 477 are added at respective final concentrations of 3 nM and 3 µM.
For basal control measurements, CP 55940 is omitted from the wells containing 3 µM AM 281.
Following 20 min incubation at 37° C., the cells are lysed and the fluorescence acceptor (D2-labeled cAMP) and fluorescence donor (anti-cAMP antibody labeled with europium cryptate) are added.
After 60 min at room temperature, the fluorescence transfer is measured at λex=337 nm and λem=620 and 665 nm using a microplate reader (Rubystar, BMG). The cAMP concentration is determined by dividing the signal measured at 665 nm by that measured at 620 nm (ratio).
The standard reference antagonist is AM 281, which is tested in each experiment at several concentrations to generate a concentration-response curve from which its IC50 value is calculated.

[2] = molecular target: human adenosine A1 receptor (Homo sapiens (Human), UniProt P30542); assay: Adenosine receptor inhibition binding assay, [3H]DPCPX, A1 receptor membranes; conditions: 1 nM [3H]DPCPX, 25° C., 1 h, Ki from IC50 by Cheng-Prusoff; for Ki: read-out: A1 pKi (converted)
human adenosine A1 receptor, sequence (P30542 whole entry): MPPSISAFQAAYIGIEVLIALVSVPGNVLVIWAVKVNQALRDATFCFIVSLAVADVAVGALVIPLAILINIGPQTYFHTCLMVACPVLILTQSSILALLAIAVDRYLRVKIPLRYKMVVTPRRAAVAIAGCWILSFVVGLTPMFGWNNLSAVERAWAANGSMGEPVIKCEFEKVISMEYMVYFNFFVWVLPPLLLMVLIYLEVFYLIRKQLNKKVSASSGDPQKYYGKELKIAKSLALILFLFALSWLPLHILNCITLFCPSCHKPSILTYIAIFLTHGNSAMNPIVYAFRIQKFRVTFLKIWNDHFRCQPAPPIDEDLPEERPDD
Procedure, shortened: as §1

| Compound | A2A pKi [1] | IC50 (human CB1 receptor) [nM] | A1 pKi [2] | Ki [1] [nM] | Ki [2] [nM] |
| --- | --- | --- | --- | --- | --- |
| Cc1cc(-c2c(-c3ccccc3)nc(N)n3c(=O)n(CCc4nnnn4C)nc23)cc(C)n1 [Example 1-5, 5-amino-8-(2,6-dimethyl-4-pyridyl)-2-[2-(1-methyltetrazol-5-yl)ethyl]-7-phenyl-[1,2,4]triazolo[4,3-c]pyrimidin-3-one] | 7.2 | > 100000 | <5.4 | – | – |
| Cc1cc(-c2c(-c3ccccc3)nc(N)n3c(=O)n(Cc4ccn(C)n4)nc23)cc(C)n1 [Example 1-16, 5-amino-8-(2,6-dimethyl-4-pyridyl)-2-[(1-methylpyrazol-3-yl)methyl]-7-phenyl-[1,2,4]triazolo[4,3-c]pyrimidin-3-one] | 9.4 | > 100000 | 7.2 | – | – |
| Cc1nc(Cn2nc3c(-c4cc(C)[n+]([O-])c(C)c4)c(-c4ccc(F)cc4)nc(N)n3c2=O)c(C)o1 [Example 1-35, 5-amino-2-[(2,5-dimethyloxazol-4-yl)methyl]-8-(2,6-dimethyl-1-oxido-pyridin-1-ium-4-yl)-7-(4-fluorophenyl)-[1,2,4]triazolo[4,3-c]pyrimidin-3-one] | 8.4 | > 100000 | 7.4 | – | – |
| Cc1cc(-c2c(-c3ccccc3)nc(N)n3c(=O)n(Cc4nccn4C)nc23)cc(C)[n+]1[O-] [Example 1-36, 5-amino-8-(2,6-dimethyl-1-oxido-pyridin-1-ium-4-yl)-2-[(1-methylimidazol-2-yl)methyl]-7-phenyl-[1,2,4]triazolo[4,3-c]pyrimidin-3-one] | 8.0 | > 100000 | 7.3 | – | – |
| Cc1ocnc1Cn1nc2c(-c3cc(C)[n+]([O-])c(C)c3)c(-c3ccc(F)cc3)nc(N)n2c1=O [Example 1-37, 5-amino-8-(2,6-dimethyl-1-oxido-pyridin-1-ium-4-yl)-7-(4-fluorophenyl)-2-[(5-methyloxazol-4-yl)methyl]-[1,2,4]triazolo[4,3-c]pyrimidin-3-one] | 8.8 | > 100000 | 6.8 | – | – |
| COc1cc(-c2c(-c3ccccc3)nc(N)n3c(=O)n(Cc4nccn4C)nc23)cc(C)n1 [Example 1-38, 5-amino-8-(2-methoxy-6-methyl-4-pyridyl)-2-[(1-methylimidazol-2-yl)methyl]-7-phenyl-[1,2,4]triazolo[4,3-c]pyrimidin-3-one] | 9.5 | > 100000 | 7.8 | – | – |
| Cc1cc(-c2c(-c3ccccc3)nc(N)n3c(=O)n(Cc4nonc4C)nc23)cc(CO)n1 [Example 1-46, 5-amino-8-[2-(hydroxymethyl)-6-methyl-4-pyridyl]-2-[(4-methyl-1,2,5-oxadiazol-3-yl)methyl]-7-phenyl-[1,2,4]triazolo[4,3-c]pyrimidin-3-one] | 9.3 | > 100000 | 6.4 | – | – |
| Cc1cc(-c2c(-c3ccc(F)cc3)nc(N)n3c(=O)n(Cc4ccn(C)n4)nc23)cc(CO)n1 [Example 1-52, 5-amino-7-(4-fluorophenyl)-8-[2-(hydroxymethyl)-6-methyl-4-pyridyl]-2-[(1-methylpyrazol-3-yl)methyl]-[1,2,4]triazolo[4,3-c]pyrimidin-3-one] | 8.6 | > 100000 | 6.7 | – | – |
| Cc1cc(-c2c(-c3ccccc3)nc(N)n3c(=O)n(C[C@H]4C[C@@H](O)CN4)nc23)cc(C)n1 [Example 2-23, 5-amino-8-(2,6-dimethyl-4-pyridyl)-2-[[(2R,4R)-4-hydroxypyrrolidin-2-yl]methyl]-7-phenyl-[1,2,4]triazolo[4,3-c]pyrimidin-3-one] | 8.2 | – | 5.9 | – | – |
| Cc1cc(-c2c(-c3ccccc3)nc(N)n3c(=O)n(CCN4CCCC4)nc23)cc(C)n1 [Example 2-26, 5-amino-8-(2,6-dimethyl-4-pyridyl)-7-phenyl-2-(2-pyrrolidin-1-ylethyl)-[1,2,4]triazolo[4,3-c]pyrimidin-3-one] | 6.9 | – | <5.7 | – | – |
| COc1cc(-c2c(-c3ccccc3)nc(N)n3c(=O)n(C[C@H]4CCCO4)nc23)cc(C)n1 [Example 2-27, 5-amino-8-(2-methoxy-6-methyl-4-pyridyl)-7-phenyl-2-[[(2R)-tetrahydrofuran-2-yl]methyl]-[1,2,4]triazolo[4,3-c]pyrimidin-3one] | 9.6 | – | 6.7 | – | – |
| [2H]c1c([2H])c([2H])c(-c2nc(N)n3c(=O)n(C[C@H]4CCCO4)nc3c2-c2cc(C)nc(CO)c2)c([2H])c1[2H] [Example 2-30, 5-amino-8-[2-(hydroxymethyl)-6-methyl-4-pyridyl]-7-(2,3,4,5,6-pentadeuteriophenyl)-2-[[(2R)-tetrahydrofuran-2-yl]methyl]-[1,2,4]triazolo[4,3-c]pyrimidin-3-one] | – | – | – | 1 | 501 |
| Cc1cc(-c2c(-c3ccc(F)cc3)nc(N)n3c(=O)n(C[C@H]4CCCO4)nc23)cc(CO)n1 [Example 2-31, 5-amino-7-(4-fluorophenyl)-8-[2-(hydroxymethyl)-6-methyl-4-pyridyl]-2-[[(2R)-tetrahydrofuran-2-yl]methyl]-[1,2,4]triazolo[4,3-c]pyrimidin-3-one] | 8.4 | – | 6.1 | – | – |
| [2H]c1c([2H])c([2H])c(-c2nc(N)n3c(=O)n(C[C@H]4CCCO4)nc3c2-c2cc(Cl)nc(CO)c2)c([2H])c1[2H] [Example 2-33, 5-amino-8-[2-chloro-6-(hydroxymethyl)-4-pyridyl]-7-(2,3,4,5,6-pentadeuteriophenyl)-2-[[(2R)-tetrahydrofuran-2-yl]methyl]-[1,2,4]triazolo[4,3-c]pyrimidin-3-one] | – | – | – | 0.316 | 158 |
| Nc1nc(-c2ccc(F)cc2)c(-c2cc(Cl)nc(CO)c2)c2nn(C[C@H]3CCCO3)c(=O)n12 [Example 2-34, 5-amino-8-[2-chloro-6-(hydroxymethyl)-4-pyridyl]-7-(4-fluorophenyl)-2-[[(2R)-tetrahydrofuran-2-yl]methyl]-[1,2,4]triazolo[4,3-c]pyrimidin-3-one] | 9.4 | – | 6.3 | – | – |
| [2H]c1c([2H])c([2H])c(-c2nc(N)n3c(=O)n(C[C@H]4CCCO4)nc3c2-c2cc(CO)nc(OC)c2)c([2H])c1[2H] [Example 2-36, 5-amino-8-[2-(hydroxymethyl)-6-methoxy-4-pyridyl]-7-(2,3,4,5,6-pentadeuteriophenyl)-2-[[(2R)-tetrahydrofuran-2-yl]methyl]-[1,2,4]triazolo[4,3-c]pyrimidin-3-one] | – | – | – | 0.794 | 1260 |
| COc1cc(-c2c(-c3ccc(F)cc3)nc(N)n3c(=O)n(C[C@H]4CCCO4)nc23)cc(CO)n1 [Example 2-37, 5-amino-7-(4-fluorophenyl)-8-[2-(hydroxymethyl)-6-methoxy-4-pyridyl]-2-[[(2R)-tetrahydrofuran-2-yl]methyl]-[1,2,4]triazolo[4,3-c]pyrimidin-3-one] | 9.0 | – | 5.5 | – | – |
| Cc1cc(-c2c(-c3ccccc3)nc(N)n3c(=O)n(CCNC4CCN(C(=O)c5cccnc5)C4)nc23)cc(C)n1 (stereo not drawn) [Example 3-2, 5-amino-8-(2,6-dimethyl-4-pyridyl)-7-phenyl-2-[2-[[1-(pyridine-3-carbonyl)pyrrolidin-3-yl]amino]ethyl]-[1,2,4]triazolo[4,3-c]pyrimidin-3-one] | 6.9 | – | 5.6 | – | – |
| Cc1cc(-c2c(-c3ccccc3)nc(N)n3c(=O)n(CCN(C)c4cn[nH]c4)nc23)cc(C)n1 [Example 3-3, 5-amino-8-(2,6-dimethyl-4-pyridyl)-2-[2-[methyl(1H-pyrazol-4-yl)amino]ethyl]-7-phenyl-[1,2,4]triazolo[4,3-c]pyrimidin-3-one] | 7.2 | – | 5.7 | – | – |
| Cc1cc(-c2c(N3CCCCC3)nc(N)n3c(=O)n(Cc4ncoc4C)nc23)cc(C)n1 [Example 4-1, 5-amino-8-(2,6-dimethyl-4-pyridyl)-2-[(5-methyloxazol-4-yl)methyl]-7-(1-piperidyl)-[1,2,4]triazolo[4,3-c]pyrimidin-3-one] | 8.9 | – | <6.0 | – | – |
